Each molecule was assayed on southern armyworm (Spodopetra eridania Cramer) (assay: Mite/insect screen, sprayed squash leaves (SAW)). Conditions: Spodoptera eridania, percent mortality; spray rate 200 ppm; read-out: SAW RESULTS %.
Assay type: in vivo
Method in brief: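 For the armyworm test, two uninfested sprayed leaves were excised, once dry for an hour, and placed in a Petri dish holding larvae. Spray solutions came from an emulsifier-containing 50:50 acetone/alcohol formulation diluted with water and were applied to runoff.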

Row | Compound | mortality at 200 ppm
1 | Fc1cccc2c(OCCc3cccc(Oc4ccccc4)c3)ncnc12 [Example 163, 8-fluoro-4-[2-(3-phenoxyphenyl)ethoxy]quinazoline] | 80%
2 | c1ccc(Oc2ccc(CCCc3ncnc4ccccc34)cc2)cc1 [Example 164, 4-[3-(4-phenoxyphenyl)propyl]quinazoline] | 40%
3 | CC(C)C(COc1ncnc2ccccc12)c1ccccc1 (centres unmarked) [Example 165, 4-(3-methyl-2-phenylbutoxy)quinazoline] | 0%
4 | Clc1cccc2c(NCCc3cccc(Oc4ccccc4)c3)ncnc12 [Example 166, 8-chloro-N-[2-(3-phenoxyphenyl)ethyl]-4-quinazolinamine] | 0%
5 | CC(C)Cc1ccc(C(C)COc2ncnc3ccccc23)cc1 (centres unmarked) [Example 167, 4-[2-[4-(2-methylpropyl)phenyl]propoxy]quinazoline] | 0%

Same assay, conditions: Spodoptera eridania, percent mortality; spray rate 400 ppm; read-out: SAW RESULTS %

Row | Compound | mortality at 400 ppm
6 | Fc1cccc2c(OCCc3cccc(Oc4ccccc4)c3)ncnc12 [Example 163, 8-fluoro-4-[2-(3-phenoxyphenyl)ethoxy]quinazoline] | 40%
7 | c1ccc(Oc2ccc(CCCc3ncnc4ccccc34)cc2)cc1 [Example 164, 4-[3-(4-phenoxyphenyl)propyl]quinazoline] | 40%
8 | CC(C)C(COc1ncnc2ccccc12)c1ccccc1 (centres unmarked) [Example 165, 4-(3-methyl-2-phenylbutoxy)quinazoline] | 0%
9 | Clc1cccc2c(NCCc3cccc(Oc4ccccc4)c3)ncnc12 [Example 166, 8-chloro-N-[2-(3-phenoxyphenyl)ethyl]-4-quinazolinamine] | 0%
10 | CC(C)Cc1ccc(C(C)COc2ncnc3ccccc23)cc1 (centres unmarked) [Example 167, 4-[2-[4-(2-methylpropyl)phenyl]propoxy]quinazoline] | 0%

Each molecule was assayed on Twospotted spider mites (Tetranychus urticae Koch) (assay: Mite/insect screen, sprayed squash cotyledons (SM)). Conditions: Tetranychus urticae, percent mortality; spray rate 200 ppm; read-out: SM RESULTS %.
Assay type: in vivo
Method in brief: (§1)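 Compounds dissolved in acetone/alcohol with TOXIMUL R/S emulsifiers, diluted with water to test concentrations, and sprayed to runoff on both leaf surfaces at 10 psi, then dried 1 h. Excised treated squash leaves given southern armyworm larvae; aphid and spider mite tests on sprayed squash cotyledons. Percent mortality and phytotoxicity scored after standard exposure.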

Row | Compound | mortality at 200 ppm
11 | Fc1cccc2c(OCCc3cccc(Oc4ccccc4)c3)ncnc12 [Example 163, 8-fluoro-4-[2-(3-phenoxyphenyl)ethoxy]quinazoline] | 0%
12 | c1ccc(Oc2ccc(CCCc3ncnc4ccccc34)cc2)cc1 [Example 164, 4-[3-(4-phenoxyphenyl)propyl]quinazoline] | 80%
13 | CC(C)C(COc1ncnc2ccccc12)c1ccccc1 (centres unmarked) [Example 165, 4-(3-methyl-2-phenylbutoxy)quinazoline] | 0%
14 | Clc1cccc2c(NCCc3cccc(Oc4ccccc4)c3)ncnc12 [Example 166, 8-chloro-N-[2-(3-phenoxyphenyl)ethyl]-4-quinazolinamine] | 0%
15 | CC(C)Cc1ccc(C(C)COc2ncnc3ccccc23)cc1 (centres unmarked) [Example 167, 4-[2-[4-(2-methylpropyl)phenyl]propoxy]quinazoline] | 90%

Same assay, conditions: Tetranychus urticae, percent mortality; spray rate 400 ppm; read-out: SM RESULTS %

Row | Compound | mortality at 400 ppm
16 | Fc1cccc2c(OCCc3cccc(Oc4ccccc4)c3)ncnc12 [Example 163, 8-fluoro-4-[2-(3-phenoxyphenyl)ethoxy]quinazoline] | 20%
17 | c1ccc(Oc2ccc(CCCc3ncnc4ccccc34)cc2)cc1 [Example 164, 4-[3-(4-phenoxyphenyl)propyl]quinazoline] | 20%
18 | CC(C)C(COc1ncnc2ccccc12)c1ccccc1 (centres unmarked) [Example 165, 4-(3-methyl-2-phenylbutoxy)quinazoline] | 0%
19 | Clc1cccc2c(NCCc3cccc(Oc4ccccc4)c3)ncnc12 [Example 166, 8-chloro-N-[2-(3-phenoxyphenyl)ethyl]-4-quinazolinamine] | 0%
20 | CC(C)Cc1ccc(C(C)COc2ncnc3ccccc23)cc1 (centres unmarked) [Example 167, 4-[2-[4-(2-methylpropyl)phenyl]propoxy]quinazoline] | 80%

What follows are molecules tested on Erysiphe graminis tritici (powdery mildew) (assay: Greenhouse Test 1, foliar spray fungicide screen (POWD MDEW), host wheat). Conditions: disease control rating, 400 ppm (+++ at 100 ppm).
Assay type: in vivo

Row | Compound | POWD MDEW
21 | Fc1cccc2c(OCCc3cccc(Oc4ccccc4)c3)ncnc12 [Example 163, 8-fluoro-4-[2-(3-phenoxyphenyl)ethoxy]quinazoline] | +++ (+++ = 90-100% control at 100 ppm)
22 | c1ccc(Oc2ccc(CCCc3ncnc4ccccc34)cc2)cc1 [Example 164, 4-[3-(4-phenoxyphenyl)propyl]quinazoline] | + (+ = 20-89% control at 400 ppm)
23 | CC(C)C(COc1ncnc2ccccc12)c1ccccc1 (centres unmarked) [Example 165, 4-(3-methyl-2-phenylbutoxy)quinazoline] | ++ (++ = 90-100% control at 400 ppm)
24 | Clc1cccc2c(NCCc3cccc(Oc4ccccc4)c3)ncnc12 [Example 166, 8-chloro-N-[2-(3-phenoxyphenyl)ethyl]-4-quinazolinamine] | + (+ = 20-89% control at 400 ppm)
25 | CC(C)Cc1ccc(C(C)COc2ncnc3ccccc23)cc1 (centres unmarked) [Example 167, 4-[2-[4-(2-methylpropyl)phenyl]propoxy]quinazoline] | + (+ = 20-89% control at 400 ppm)

What follows are molecules tested on Botrytis cinerea (gray mold) (assay: Greenhouse Test 1, foliar spray fungicide screen (GRAY MOLD), host grape berries). Conditions: disease control rating, 400 ppm (+++ at 100 ppm).
Assay type: in vivo

Row | Compound | GRAY MOLD
26 | Fc1cccc2c(OCCc3cccc(Oc4ccccc4)c3)ncnc12 [Example 163, 8-fluoro-4-[2-(3-phenoxyphenyl)ethoxy]quinazoline] | - (- = 0-19% control at 400 ppm)
27 | c1ccc(Oc2ccc(CCCc3ncnc4ccccc34)cc2)cc1 [Example 164, 4-[3-(4-phenoxyphenyl)propyl]quinazoline] | - (- = 0-19% control at 400 ppm)
28 | CC(C)C(COc1ncnc2ccccc12)c1ccccc1 (centres unmarked) [Example 165, 4-(3-methyl-2-phenylbutoxy)quinazoline] | - (- = 0-19% control at 400 ppm)
29 | Clc1cccc2c(NCCc3cccc(Oc4ccccc4)c3)ncnc12 [Example 166, 8-chloro-N-[2-(3-phenoxyphenyl)ethyl]-4-quinazolinamine] | - (- = 0-19% control at 400 ppm)
30 | CC(C)Cc1ccc(C(C)COc2ncnc3ccccc23)cc1 (centres unmarked) [Example 167, 4-[2-[4-(2-methylpropyl)phenyl]propoxy]quinazoline] | - (- = 0-19% control at 400 ppm)

These molecules were tested on Pseudoperonospora cubensis (downy mildew) (assay: Greenhouse Test 1, foliar spray fungicide screen (DOWN MDEW), host squash). Conditions: disease control rating, 400 ppm (+++ at 100 ppm).
Assay type: in vivo

Row | Compound | DOWN MDEW
31 | Fc1cccc2c(OCCc3cccc(Oc4ccccc4)c3)ncnc12 [Example 163, 8-fluoro-4-[2-(3-phenoxyphenyl)ethoxy]quinazoline] | +++ (+++ = 90-100% control at 100 ppm)
32 | c1ccc(Oc2ccc(CCCc3ncnc4ccccc34)cc2)cc1 [Example 164, 4-[3-(4-phenoxyphenyl)propyl]quinazoline] | +++ (+++ = 90-100% control at 100 ppm)
33 | CC(C)C(COc1ncnc2ccccc12)c1ccccc1 (centres unmarked) [Example 165, 4-(3-methyl-2-phenylbutoxy)quinazoline] | ++ (++ = 90-100% control at 400 ppm)
34 | Clc1cccc2c(NCCc3cccc(Oc4ccccc4)c3)ncnc12 [Example 166, 8-chloro-N-[2-(3-phenoxyphenyl)ethyl]-4-quinazolinamine] | + (+ = 20-89% control at 400 ppm)
35 | CC(C)Cc1ccc(C(C)COc2ncnc3ccccc23)cc1 (centres unmarked) [Example 167, 4-[2-[4-(2-methylpropyl)phenyl]propoxy]quinazoline] | - (- = 0-19% control at 400 ppm)

Each molecule was assayed on Southern corn rootworm (Diabrotica undecimpuctata howardi Barber) (assay: Mite/insect screen, soil treatment (CRW)). Conditions: Diabrotica; percent mortality; soil treatment, CRW rate 12.00 ppm; read-out: CRW RESULTS %.
Assay type: in vivo
Method in brief: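 Compounds dissolved in acetone/alcohol (50:50) with Toximul R/S emulsifiers, diluted with water. Soil (15 g, with presoaked corn seed) treated with 1 mL test solution, dried 6–12 h, then five 2–3 instar larvae added; held at 23°C. Percent mortality and phytotoxicity scored after standard exposure periods.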

Row | Compound | mortality at 12 ppm
36 | Fc1cccc2c(OCCc3cccc(Oc4ccccc4)c3)ncnc12 [Example 163, 8-fluoro-4-[2-(3-phenoxyphenyl)ethoxy]quinazoline] | 0%
37 | c1ccc(Oc2ccc(CCCc3ncnc4ccccc34)cc2)cc1 [Example 164, 4-[3-(4-phenoxyphenyl)propyl]quinazoline] | 0%
38 | CC(C)C(COc1ncnc2ccccc12)c1ccccc1 (centres unmarked) [Example 165, 4-(3-methyl-2-phenylbutoxy)quinazoline] | 0%
39 | Clc1cccc2c(NCCc3cccc(Oc4ccccc4)c3)ncnc12 [Example 166, 8-chloro-N-[2-(3-phenoxyphenyl)ethyl]-4-quinazolinamine] | 0%
40 | CC(C)Cc1ccc(C(C)COc2ncnc3ccccc23)cc1 (centres unmarked) [Example 167, 4-[2-[4-(2-methylpropyl)phenyl]propoxy]quinazoline] | 0%

Same assay, conditions: Diabrotica; percent mortality; soil treatment, CRW rate 24.00 ppm; read-out: CRW RESULTS %

Row | Compound | mortality at 24 ppm
41 | Fc1cccc2c(OCCc3cccc(Oc4ccccc4)c3)ncnc12 [Example 163, 8-fluoro-4-[2-(3-phenoxyphenyl)ethoxy]quinazoline] | 0%
42 | c1ccc(Oc2ccc(CCCc3ncnc4ccccc34)cc2)cc1 [Example 164, 4-[3-(4-phenoxyphenyl)propyl]quinazoline] | 0%
43 | CC(C)C(COc1ncnc2ccccc12)c1ccccc1 (centres unmarked) [Example 165, 4-(3-methyl-2-phenylbutoxy)quinazoline] | 0%
44 | Clc1cccc2c(NCCc3cccc(Oc4ccccc4)c3)ncnc12 [Example 166, 8-chloro-N-[2-(3-phenoxyphenyl)ethyl]-4-quinazolinamine] | 0%
45 | CC(C)Cc1ccc(C(C)COc2ncnc3ccccc23)cc1 (centres unmarked) [Example 167, 4-[2-[4-(2-methylpropyl)phenyl]propoxy]quinazoline] | 0%

These molecules were tested on Pyricularia oryzae (rice blast) (assay: not given). Conditions: disease control rating, foliar spray, host rice; 400 ppm (+++ at 100 ppm).
Assay type: in vivo

Row | Compound | RICE BLAST
46 | Fc1cccc2c(OCCc3cccc(Oc4ccccc4)c3)ncnc12 [Example 163, 8-fluoro-4-[2-(3-phenoxyphenyl)ethoxy]quinazoline] | +++ (+++ = 90-100% control at 100 ppm)
47 | c1ccc(Oc2ccc(CCCc3ncnc4ccccc34)cc2)cc1 [Example 164, 4-[3-(4-phenoxyphenyl)propyl]quinazoline] | +++ (+++ = 90-100% control at 100 ppm)
48 | CC(C)C(COc1ncnc2ccccc12)c1ccccc1 (centres unmarked) [Example 165, 4-(3-methyl-2-phenylbutoxy)quinazoline] | ++ (++ = 90-100% control at 400 ppm)
49 | Clc1cccc2c(NCCc3cccc(Oc4ccccc4)c3)ncnc12 [Example 166, 8-chloro-N-[2-(3-phenoxyphenyl)ethyl]-4-quinazolinamine] | ++ (++ = 90-100% control at 400 ppm)
50 | CC(C)Cc1ccc(C(C)COc2ncnc3ccccc23)cc1 (centres unmarked) [Example 167, 4-[2-[4-(2-methylpropyl)phenyl]propoxy]quinazoline] | +++ (+++ = 90-100% control at 100 ppm)

These molecules were tested on melon aphids (Aphis gossypii Glover) (assay: Mite/insect screen, sprayed squash cotyledons (MA)). Conditions: Aphis gossypii, percent mortality; spray rate 200 ppm; read-out: MA RESULTS %.
Assay type: in vivo
Method in brief: as §1

Row | Compound | mortality at 200 ppm
51 | Fc1cccc2c(OCCc3cccc(Oc4ccccc4)c3)ncnc12 [Example 163, 8-fluoro-4-[2-(3-phenoxyphenyl)ethoxy]quinazoline] | 80%
52 | c1ccc(Oc2ccc(CCCc3ncnc4ccccc34)cc2)cc1 [Example 164, 4-[3-(4-phenoxyphenyl)propyl]quinazoline] | 80%
53 | CC(C)C(COc1ncnc2ccccc12)c1ccccc1 (centres unmarked) [Example 165, 4-(3-methyl-2-phenylbutoxy)quinazoline] | 50%
54 | Clc1cccc2c(NCCc3cccc(Oc4ccccc4)c3)ncnc12 [Example 166, 8-chloro-N-[2-(3-phenoxyphenyl)ethyl]-4-quinazolinamine] | 0%
55 | CC(C)Cc1ccc(C(C)COc2ncnc3ccccc23)cc1 (centres unmarked) [Example 167, 4-[2-[4-(2-methylpropyl)phenyl]propoxy]quinazoline] | 90%

Same assay, conditions: Aphis gossypii, percent mortality; spray rate 400 ppm; read-out: MA RESULTS %

Row | Compound | mortality at 400 ppm
56 | Fc1cccc2c(OCCc3cccc(Oc4ccccc4)c3)ncnc12 [Example 163, 8-fluoro-4-[2-(3-phenoxyphenyl)ethoxy]quinazoline] | 80%
57 | c1ccc(Oc2ccc(CCCc3ncnc4ccccc34)cc2)cc1 [Example 164, 4-[3-(4-phenoxyphenyl)propyl]quinazoline] | 80%
58 | CC(C)C(COc1ncnc2ccccc12)c1ccccc1 (centres unmarked) [Example 165, 4-(3-methyl-2-phenylbutoxy)quinazoline] | 80%
59 | Clc1cccc2c(NCCc3cccc(Oc4ccccc4)c3)ncnc12 [Example 166, 8-chloro-N-[2-(3-phenoxyphenyl)ethyl]-4-quinazolinamine] | 60%
60 | CC(C)Cc1ccc(C(C)COc2ncnc3ccccc23)cc1 (centres unmarked) [Example 167, 4-[2-[4-(2-methylpropyl)phenyl]propoxy]quinazoline] | 80%

The molecules below were run on Puccinia recondita tritici (leaf rust) (assay: Greenhouse Test 1, foliar spray fungicide screen (LEAF RUST), host wheat). Conditions: disease control rating, 400 ppm (+++ at 100 ppm).
Assay type: in vivo

Row | Compound | LEAF RUST
61 | Fc1cccc2c(OCCc3cccc(Oc4ccccc4)c3)ncnc12 [Example 163, 8-fluoro-4-[2-(3-phenoxyphenyl)ethoxy]quinazoline] | +++ (+++ = 90-100% control at 100 ppm)
62 | c1ccc(Oc2ccc(CCCc3ncnc4ccccc34)cc2)cc1 [Example 164, 4-[3-(4-phenoxyphenyl)propyl]quinazoline] | +++ (+++ = 90-100% control at 100 ppm)
63 | CC(C)C(COc1ncnc2ccccc12)c1ccccc1 (centres unmarked) [Example 165, 4-(3-methyl-2-phenylbutoxy)quinazoline] | ++ (++ = 90-100% control at 400 ppm)
64 | Clc1cccc2c(NCCc3cccc(Oc4ccccc4)c3)ncnc12 [Example 166, 8-chloro-N-[2-(3-phenoxyphenyl)ethyl]-4-quinazolinamine] | +++ (+++ = 90-100% control at 100 ppm)
65 | CC(C)Cc1ccc(C(C)COc2ncnc3ccccc23)cc1 (centres unmarked) [Example 167, 4-[2-[4-(2-methylpropyl)phenyl]propoxy]quinazoline] | + (+ = 20-89% control at 400 ppm)
